Results on six molecules are retold here after patent US7078554B2, “Detection of glucose in solutions also containing an alpha-hydroxy acid or a beta-diketone” (Sensors for Medicine and Science, Inc., priority 2001, dated 2006).

The nature of data set [1]: Effect of lactate in solution on the dose response effect of glucose on fluorescence. To be noted: 75 μM in PBS, 0–10 mM glucose with 0, 2 or 5 mM lactate, excitation 365 nm (FIG. 3). The protocol: Spectra were recorded using a Shimadzu RF-5301 spectrafluorometer with excitation @365 nm; excitation slits at 1.5 nm; emission slits at 1.5 nm; ambient temperature. All points measured in triplicate, with ±1 SD error bars included.
The hydrogel film (100 μm thickness, 8 mm diameter disk) was mounted in a PMMA cuvette at a 45° angle. All measurements were made at 37° C. in a Shimadzu RF-5301 spectrofluorometer with excitation at 370 nm (slit=3 nm) and emission at 430 nm (slit=3 nm) at low PMT sensitivity. Glucose and L-sodium lactate concentrations were checked using the YSI Model 2300 STAT plus glucose analyzer. Error bars are standard deviation with triplicate values for each data point.
The hydrogel film (100 μm thickness, 8 mm diameter disk) was mounted in a PMMA cuvette at a 45° angle. All measurements were made at 37° C. in a Shimadzu RF-5301 spectrofluorometer with excitation at 370 nm (slit=3 nm) and emission at 430 nm (slit=3 nm) at low PMT sensitivity. Glucose and L-sodium lactate concentrations were checked using the YSI Model 2300 STAT plus glucose analyzer. The data is plotted as the average of triplicate values for each data point.

A short description of data set [2]: Modulation of fluorescence with glucose.
Data set [3] can be described thus: Modulation of fluorescence with lactate.
The next data set in a line: Solubility. The settings on record: solvents in which soluble. Type of data set: physicochemical.
For data set [4] the following is noted: aqueous association with glucose; cited from earlier work.

Take `O=C(O)CCN(Cc1ccccc1B(O)O)Cc1c2ccccc2c(CN(CCC(=O)O)Cc2ccccc2B(O)O)c2ccccc12` [9,10-bis[N-(2-boronobenzyl)-N-[2-(carboxyethyl)amino]-methyl]anthracene]: the “effect of lactate on the fluorescence modulation (at 428 nm) by glucose” value in data set [1] was “did not substantially affect”.
Take `CN(CCNc1ccc2c3c(cccc13)C(=O)N(CCNC(=O)c1cc(B(O)O)cc([N+](=O)[O-])c1)C2=O)Cc1ccccc1B(O)O` [Example 10, N-(3-Borono-5-nitrobenzamido)ethyl-4-(N′-aminoethylene-N″-[2-(borono)benzyl]methylamino)naphthalene-1,8-dicarboximide]: the “normalized fluorescence emission (I/I0 at 525 nm), effect of glucose” value in data set [2] (in MeOH/PBS (50/50 vol. %), pH 7.4, 0–50 mM glucose, excitation 430 nm (FIG. 12)) is on record as “affected by the presence of glucose”. For the same molecule, the “normalized fluorescence emission (I/I0 at 530 nm), effect of lactate” value in data set [3] (in MeOH/PBS (50/50 vol. %), pH 7.4, 0–7 mM L-sodium lactate, excitation 430 nm (FIG. 13)) was “not by the presence of lactate”.
In the case of `C=C(C)C(=O)NCCCN(Cc1ccccc1B(O)O)Cc1c2ccccc2c(CN(CCC(=O)O)Cc2ccccc2B(O)O)c2ccccc12` [Example 12, 9-[N-(2-boronobenzyl)-N-[3-(methacrylamido)propylamino]methyl]-10-[N-(2-boronobenzyl)-N-[2-(carboxyethyl)amino]methyl]anthracene], in the data set “Solubility”, the Solubility result is “PBS/methanol, methanol, ethanol, chloroform, dichloromethane”.
The same measure, in the same setting: to `C=C(C)C(=O)NCCCN(Cc1ccccc1B1OC(C)(C)C(C)(C)O1)Cc1c2ccccc2c(CN(CCC(=O)NCCCCCCNC(=O)c2c3ccccc3cc3ccccc23)Cc2ccccc2B2OC(C)(C)C(C)(C)O2)c2ccccc12` [Example 13] belongs “PBS/methanol, methanol, ethanol, chloroform, dichloromethane”.
By Kd is commonly meant a measure of binding affinity in units of concentration. As for `OB(O)c1ccccc1` [phenylboronic acid], in data set [4], the Kd was 9.1 mM.
In the case of “N-2-[6-N-(N-4-dimethylaminobenzyl)-6-N-[2-(borono)benzyl]aminohexyl]-[2-(borono)benzyl]amino-ethyl-4-butylamino-1,8-naphthalimide [Example 5]”, the “normalized fluorescence emission (I/Io @ 535 nm), effect of glucose” value in data set [2] (0.015 mM in 70/30 MeOH/PBS, 0–20 mM glucose, excitation 450 nm (FIG. 5)) is “affected by the presence of glucose”. Further, the “normalized fluorescence emission (I/Io @ 535 nm), effect of lactate” value in data set [3] (0.015 mM in 70/30 MeOH/PBS, 0–20 mM lactate, excitation 450 nm (FIG. 5)) was “not substantially affected by the presence of lactate”.
